{"source": "patent US6620793B2", "about": "“Therapeutic use of ganglioside GM1 in the treatment of spinal cord injury” (Fidia Farmaceutici S.p.A., priority 1991, dated 2003)", "key": {"[1]": {"assay": "Solubility of purified GM1 sodium salt", "format": "physicochemical", "description": "The compound obtained after this purification has the following chemical characteristics and specifications:\nSoluble in water, methanol-water and methanol-chloroform."}, "[2]": {"system": "patients with spinal cord injury", "assay": "Randomized placebo-controlled double-blind spinal cord injury GM1 trial: ASIA motor score", "quoted_text": "This study was designed as a pilot study to test whether the neurologic recovery in humans after a spinal-cord injury could be altered by adding monosialbtetrahexosylganglioside (GM1) ganglioside beyond the routine medical and surgical care with which these trauma patients are initially treated.\nA prospective, randomized, placebo-controlled, double-blinded spinal cord injury GM1 ganglioside drug trial was completed. Of the 37 patients, 34 patients (23 cervical and 11 thoracic injuries) who were randomly assigned to a treatment group and who followed the test drug protocol and completed the one year follow-up period, 16 patients were included in the GM1 group and 18 were in the placebo group.\nThe first dose of study drug was administered within 72 hours of the injury and then 17 to 29 additional 5 ml daily injections of 100 mg GM1 or placebo were given. The treatment (100 mg of GM1 sodium salt or placebo) was administered duly by the intravenous route for a total of 18-32 doses, with the first dose taken within 72 hours of the injury.\nThe complete composition of the GM1 ganglioside used in the study (Sygen, Fidia, Abano Terme, Italy) is 100 mg of GM1 sodium salt, 12.7 mM; 1.25 mg of sodium dihydrogen phosphate dihydrate, 1.6 mM; 15.0 mg of disodium hydrogen phosphate dodecahydrate, 8.4 mM; 40.0 mg of sodium chloride, 137.9 nM; and a quantity of water sufficient to yield an isotonic solution with a total volume of 5 ml for injection. The placebo vials were identical in appearance and composition, except that the GM1 was absent. Most of the test drug was administered by injection through an intravenous heparin lock. Some of the first few injections were given by an intravenous catheter, and occasionally, when the heparin lock was nonfunctional, a single direct-puncture intravenous injection was used.\nThe severity of spinal-cord injury and its subsequent recovery were quantified by serial measurement with both the Frankel scale and the American Spinal Injury Association (ASIA) motor score. Each measurement was made at the time of the first contact in the emergency room, at entry into the study, then twice per week for the first 4 weeks and after 2, 3, 6 and 12 months.\nThe second clinical scale used, that is the ASIA motor score, provides a quantifiable index of nerve-muscle functionality. More exactly, this scale has a range of 0 (complete quadriplegia) to 100 (normal motor function). Five key muscles in each extremity (the biceps, wrist extensors, triceps, flexor profundus, and hand intrinsics in the upper extremity, and the iliopsoas, quadriceps, tibialis anterior, extensor hallucis longus, and gastrocnemius in the lower extremity) are assessed on a scale for strength from 0 to 5 points in which 0 (absent) denotes total paralysis, 1 (trace) palpable or visible penetration, 2(poor) active movement through a range of motion in which gravity is not involved, 3 (fair) active movement through a range of motion against gravity, 4 (good) active movement through a range of motion against resistance, and 5 normal. The ASIA motor score is the sum of the scores for muscle strength in these 20 motor groups.\nFurthermore, to better analyze the GM1 effect on muscular functionality, the 20 individual muscle groups in each patient were subdivided into three categories at entry: those initially paralyzed (a motor score of 0), those initially paretic (a motor score of 1 through 4), and those functioning normally (a motor score of 5)."}, "[3]": {"system": "patients with spinal cord injury", "assay": "Randomized placebo-controlled double-blind spinal cord injury GM1 trial: Frankel grade", "format": "in vivo, humans", "description": "The first clinical scale used, that is the Frankel classification system, is extremely important because it provides a very relevant clinical index of neurological improvement of the patients.\nMore precisely, the Frankel classification system separates neurologic disability into five ordinal grades, according to the type and completeness of neurologic function remaining below the level of the spinal-cord injury, as follows: grad A, complete neurclogic injury; grade B, only sensation preserved; grade C, nonfunctional motor ability preserved; grade D, functional motor ability preserved; and grade E, normal motor function. The letters designating each grade were used by Frankel in his original description of this scale."}}, "note": "Several values for one entry are separate records, joined by “and”; a condition that tells them apart may be missing. Equal values may be shown once.", "data": [{"compound": "CCCCCCCCCCCCCC=CC(O)C(COC1OC(CO)C(OC2OC(CO)C(OC3OC(CO)C(O)C(OC4OC(CO)C(O)C(O)C4O)C3NC(C)=O)C(OC3(C(=O)[O-])CC(O)C(NC(C)=O)C(C(O)C(O)CO)O3)C2O)C(O)C1O)NC(=O)CCCCCCCCCCCCCCCCC.[Na+]", "note": "(stereo not drawn) [GM1, Monosialotetrahexosylganglioside, sodium salt]", "values": [{"measurement": "Solubility", "setting": "[1]; in methanol, acetone, chloroform, ether and hexane", "value": "Virtually insoluble"}, {"measurement": "Solubility", "setting": "[1]; in water, methanol-water and methanol-chloroform", "value": "Soluble"}, {"measurement": "Difference in improvement in ASIA motor score between groups, unadjusted", "setting": "[2]; GM1 versus placebo, one year, mean ± SD, n=34, sodium salt", "value": "15.3 and 15.3 ± 25.6"}, {"measurement": "Improvement in mean ASIA motor score", "setting": "[2]; all patients, entry to one-year follow-up, mean ± SD, n=16", "value": "36.9 ± 28.2"}, {"measurement": "Mean ASIA motor score at follow-up", "setting": "[2]; all patients, one-year follow-up, mean ± SD, n=16", "value": "62.8 ± 26.8"}, {"measurement": "Mean ASIA motor score at entry", "setting": "[2]; all patients, study entry (baseline), mean ± SD, n=16, sodium salt", "value": "25.9 and 25.9 ± 21.8"}, {"measurement": "Patients with a greater degree of ASIA motor recovery than any patient assigned to placebo", "setting": "[2]; entry to one-year follow-up", "value": "three"}, {"measurement": "Patients with motor recoveries of more than 20 points in ASIA motor score (number)", "setting": "[2]; entry to one-year follow-up, placebo 7 of 18", "value": "11 of 16"}, {"measurement": "Patients with motor recoveries of more than 20 points in ASIA motor score (percent)", "setting": "[2]; entry to one-year follow-up, placebo 38.9 percent", "value": 68.8, "unit": "%"}, {"measurement": "Patients with no recovery in ASIA motor score", "setting": "[2]; entry to one-year follow-up, placebo six patients", "value": "one"}, {"measurement": "Mean motor recovery in ASIA motor score", "setting": "[2]; entry to score after one year, 95 percent CI 21.9 to 51.9", "value": 36.9, "unit": "points"}, {"measurement": "Muscle groups paralyzed at entry that regained useful-to-normal motor function (percent)", "setting": "[2]; motor score 0 at entry to 3 to 5 after one year, placebo 25.3 percent", "value": 51.7, "unit": "%"}, {"measurement": "Muscle groups paralyzed at entry that regained useful-to-normal motor function (number)", "setting": "[2]; motor score 0 at entry to 3 to 5 after one year, placebo 49 of 194", "value": "107 of 207"}, {"measurement": "Muscle groups paralyzed at entry that remained paralyzed (percent)", "setting": "[2]; motor score 0 at entry, after one year, placebo 65.5 percent", "value": 30.9, "unit": "%"}, {"measurement": "Muscle groups paralyzed at entry that remained paralyzed (number)", "setting": "[2]; motor score 0 at entry, after one year, placebo 127 of 194", "value": "64 of 207"}, {"measurement": "Patients with at least one muscle group paralyzed at entry that improved to a motor score of 3 or more (number)", "setting": "[2]; one-year follow-up, post hoc, placebo 8 of 18, P=0.039 Fisher's exact test", "value": "13 of 16"}, {"measurement": "Patients with at least one muscle group paralyzed at entry that improved to a motor score of 3 or more (percent)", "setting": "[2]; one-year follow-up, post hoc, placebo 44.4 percent, P=0.039 Fisher's exact test", "value": 81.3, "unit": "%"}, {"measurement": "Patients improved by two or more Frankel grades who were in the GM1 group", "setting": "[3]; after one year, 100 mg GM1 i.v. daily, 18-32 doses, 8 of 34 patients improved overall", "value": "seven of eight"}, {"measurement": "Improvement with respect to Frankel grade versus placebo", "setting": "[3]; entry to one year, P=0.034 Cochran-Mantel-Haenszel chi-square test", "value": "improved more than the placebo-treated patients"}, {"measurement": "Patients improved by two or more Frankel grades among those who had room to improve (number)", "setting": "[3]; one year, placebo 1 of 14, P=0.033 Fisher's exact test, two-tailed", "value": "7 of 14"}, {"measurement": "Patients improved by two or more Frankel grades among those who had room to improve (percent)", "setting": "[3]; one year, placebo 7.1 percent, P=0.033 Fisher's exact test", "value": 50, "unit": "%"}]}]}
